From ChEMBL document CHEMBL4033771, “Development of Potent Myostatin Inhibitory Peptides through Hydrophobic Residue-Directed Structural Modification” (ACS Med Chem Lett, 2017)
The source made the active and inactive calls. The calls are words filed in the database; no cut-off is given here. Where a SMILES comes first, the peptide text is derived from it. The star is where a group is joined. Acetyl(2-naphthyloxy) = O=C(COc1ccc2ccccc2c1)*

Key:
Mus musculus [1] = assay: Increase in tibialis anterior muscle weight in wild type mouse at 20 nmol, im after 28 days relative to control; assay type: functional
Mus musculus [2] = assay: Increase in tibialis anterior muscle weight in caveolin 3-deficient limb gridle muscular destrophy 1C mouse model at 20 nmol, im after 28 days relative to control; assay type: functional
Mus musculus [3] = assay: Increase in tibialis anterior muscle weight in mdx mouse at 0.75 mM, im administered on day 0 and 14 measured on day 42 relative to control; assay type: functional
Mus musculus [4] = assay: Increase in tibialis anterior muscle weight in wild type ICR mouse at 0.75 mM, im administered on day 0 and 14 measured on day 42 relative to control; assay type: functional
Mus musculus [5] = assay: Increase in gastrocnemius muscle weight in wild type ICR mouse at 0.75 mM, im administered on day 0 and 14 measured on day 42 relative to control; assay type: functional
Mus musculus [6] = assay: Increase in gastrocnemius muscle fiber size in mdx mouse at 0.75 mM, im administered on day 0 and 14 measured on day 42 by Hematoxylin and Eosin staining based assay; assay type: functional, organism-based

| Structure (SMILES) | Activity (Mus musculus [1]) [%] | Activity (Mus musculus [2]) [%] | Activity (Mus musculus [3]) | Activity (Mus musculus [4]) | Activity (Mus musculus [5]) | Activity (Mus musculus [6]) |
| --- | --- | --- | --- | --- | --- | --- |
| CC[C@H](C)[C@H](NC(=O)[C@H](C)NC(=O)[C@H](CCC(=O)O)NC(=O)[C@@H](NC(=O)[C@H](CCCNC(=N)N)NC(=O)[C@H](CO)NC(=O)[C@H](Cc1ccc(O)cc1)NC(=O)[C@H](CCCNC(=N)N)NC(=O)[C@@H](NC(=O)[C@H](CC(N)=O)NC(=O)[C@H](CCC(N)=O)NC(=O)[C@H](CCCNC(=N)N)NC(=O)[C@H](Cc1c[nH]c2ccccc12)NC(=O)[C@H](C)NC(=O)[C@@H](N)CS)[C@@H](C)O)[C@@H](C)CC)C(=O)N[C@@H](CCCCN)C(=O)N[C@H](C(=O)N[C@@H](CCC(N)=O)C(=O)N[C@H](C(=O)N[C@@H](CC(C)C)C(=O)N[C@@H](CO)C(=O)N[C@@H](CCCCN)C(=O)N[C@@H](CC(C)C)C(=O)N[C@@H](CCCNC(=N)N)C(=O)N[C@@H](CC(C)C)C(=O)N[C@@H](CCC(=O)O)C(=O)N[C@H](C(=O)N[C@@H](C)C(=O)N1CCC[C@H]1C(N)=O)[C@@H](C)O)[C@@H](C)CC)[C@@H](C)CC (H-CAWRQNTRYSRIEAIKIQILSKLRLETAP-NH2) | 10.6 | 20.6 |  |  |  |  |
| CC[C@H](C)[C@H](NC(=O)[C@H](CCCNC(=N)N)NC(=O)[C@H](CO)NC(=O)[C@H](Cc1ccc(O)cc1)NC(=O)[C@H](CCCNC(=N)N)NC(=O)[C@@H](NC(=O)[C@H](CC(N)=O)NC(=O)[C@H](CCC(N)=O)NC(=O)[C@H](CCCNC(=N)N)NC(=O)COc1ccc2ccccc2c1)[C@@H](C)O)C(=O)N[C@@H](CCC(=O)O)C(=O)N[C@@H](Cc1c[nH]c2ccccc12)C(=O)N[C@H](C(=O)N[C@@H](CCCCN)C(=O)N[C@H](C(=O)N[C@@H](CCC(N)=O)C(=O)N[C@H](C(=O)N[C@H](C(=O)N[C@@H](CO)C(=O)N[C@@H](CCCCN)C(=O)N[C@@H](CC(C)C)C(=O)N[C@@H](CCCNC(=N)N)C(=O)N[C@@H](CC(C)C)C(N)=O)[C@@H](C)CC)[C@@H](C)CC)[C@@H](C)CC)[C@@H](C)CC ({Acetyl(2-naphthyloxy)}-RQNTRYSRIEWIKIQIISKLRL-NH2) |  |  | 10 - 19% | 10 - 34% | 11 - 35% | Active |
